Reference: patent US20040082021A1, “Method for assaying compounds or agents for ability to decrease the activity of microsomal prostaglandin E synthase or hematopoietic prostaglandin D synthase” (Aventis Pharmaceuticals Inc., priority 2002, published 2004)

Biological target: T1, human hPGDS (Homo sapiens, UniProt O60760)
T1 construct: made in house; host or cells: E. coli FL21 (DE3) as printed, pT7-7 vector
Experiment: Fluorescence polarization assay of hematopoietic prostaglandin D synthase (hPGDS)
Assay type: biochemical
Settings: conversion of PGH2 to PGD2, FIG. 8 histogram
Method: A fluorescence polarization (FP) assay to measure hPGDS activity has also been developed (FIGS. 3 and 4). The assay is configured based on the fluorescence polarization principle. hPGDS was mixed with PGH2, glutathione, and the compound or agent being evaluated. After a short period of time (about 30 seconds), a stop solution containing FeCl2 (20 mM) was added to quench any remaining PGH2, which would undergo spontaneous conversion to a mixture of PGD2 and PGE2, and thus interfere with the quantification of the enzymatic conversion of PGH2 to PGD2 (FIG. 3). A detection solution containing a fluorescence labeled (Texas Red) tracer (PGD2) and anti-PGD2 antibody was then added in order to generate the specific signal that is inversely proportional to the production of PGD2 (FIG. 4). The PGD2 generated from the enzymatic reaction competed specifically for the antibody and released the fluorescence labeled tracer. For reasons discussed above, a decrease or inhibition of PGD2 synthase activity results in increased fluorescence polarization (FP) value. […]
A control mixture was prepared that was identical to the mixture containing the enzyme, wherein the control mixture was treated in a manner identical the mixture containing the enzyme, i.e., same incubation durations, etc. […] The fluorescence polarization measurement was made while the measuring instrument is in FP mode. […]

T1 sequence (O60760 whole entry): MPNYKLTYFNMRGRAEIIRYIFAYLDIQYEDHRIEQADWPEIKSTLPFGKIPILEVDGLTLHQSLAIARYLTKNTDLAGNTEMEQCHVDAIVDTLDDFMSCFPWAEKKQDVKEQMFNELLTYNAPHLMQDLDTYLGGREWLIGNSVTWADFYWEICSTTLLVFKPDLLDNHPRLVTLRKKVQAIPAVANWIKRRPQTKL

decrease in activity of hPGDS detected by FP method: decreases the activity of hPGDS
SMILES: c1ccc(C(OC2CCN(CCCc3nn[nH]n3)CC2)c2ccccc2)cc1 [HQL 79]
